Test systems include BT-549 breast; MOLT-4 leukemia; SK-MEL-5 melanoma; SK-MEL-2 melanoma; SW-620 colon; NCI-H460 lung; U251 CNS; HCC-2998 colon; PC-3 prostate; HL-60(TB) leukemia.
Common to all, as to experiment: inhibition of tumour cell growth, NCI panel, 48 h

Molecules are shown by their SMILES. Several values for one entry are separate records, joined by “and”; a condition that tells them apart may be missing. Equal values may be shown once.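 These data come from cells grown in 96-well plates and exposed to compound for 48 hours at five concentrations. At the GI50, growth is halved. The concentration for full growth arrest is given as TGI.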 Where only a bound is given, the exact number is not on record here.

With `O=c1cc(-c2cccc3c2Sc2ccccc2S3)oc(N2CCOCC2)c1`, the GI50 was 4.25 µM in the experiment on BT-549 breast; 7.34 µM with MOLT-4 leukemia; 8.53 µM in the experiment with SK-MEL-5 melanoma; 5.71 µM in the experiment on SK-MEL-2 melanoma; 12.3 µM in the experiment on SW-620 colon; 12.7 µM in the experiment on NCI-H460 lung. The GI50 in the experiment on U251 CNS is 8.94 µM; in the experiment on HCC-2998 colon, 11.6 µM; in the experiment with PC-3 prostate it was 6.26 µM; in the experiment with HL-60(TB) leukemia, 11.6 µM. Also, the TGI stood at 17 µM in the experiment with BT-549 breast; 25.5 µM in the experiment on MOLT-4 leukemia; 22 µM in the experiment on SK-MEL-5 melanoma; 19.3 µM in the experiment with SK-MEL-2 melanoma; 26.8 µM in the experiment on SW-620 colon; 31.2 µM with NCI-H460 lung. For the same molecule, the TGI was found to be 21.7 µM in the experiment on U251 CNS, 25.8 µM in the experiment on HCC-2998 colon, 20.9 µM in the experiment on PC-3 prostate and 32.3 µM in the experiment on HL-60(TB) leukemia.
Regarding `Cc1csc(/C=C/C(=O)c2nnn(-c3ccnc4c(C(F)(F)F)cccc34)c2C)c1`, the GI50 in the experiment on BT-549 breast was more than 100 µM; in the experiment on MOLT-4 leukemia it was 22.2 µM; in the experiment on SK-MEL-5 melanoma, 17.9 µM; with SK-MEL-2 melanoma, more than 100 µM; in the experiment with SW-620 colon it was more than 100 µM; in the experiment on NCI-H460 lung, 43.5 µM. In addition, the GI50 in the experiment on U251 CNS is 39.2 µM; in the experiment with HCC-2998 colon, 43.7 µM; with PC-3 prostate it was 29.7 µM; in the experiment on HL-60(TB) leukemia, 29.7 µM. Besides, the TGI in the experiment with BT-549 breast is more than 100 µM; in the experiment on MOLT-4 leukemia, 66.9 µM; in the experiment on SK-MEL-5 melanoma, 57 µM; with SK-MEL-2 melanoma, more than 100 µM; with SW-620 colon, more than 100 µM; with NCI-H460 lung, more than 100 µM. Further, the TGI with U251 CNS, with HCC-2998 colon, in the experiment with PC-3 prostate and in the experiment with HL-60(TB) leukemia was more than 100 µM in each case.
`CC(C)=CCC/C(C)=C/CC/C(C)=C/CSc1ccccc1C(=O)O`: the GI50 in the experiment on BT-549 breast is 19.4 µM; in the experiment with SK-MEL-5 melanoma it was 19.6 µM; in the experiment on SK-MEL-2 melanoma, 22.6 µM; with SW-620 colon, 20.1 µM; with NCI-H460 lung it was 20.9 µM; with U251 CNS, 23.4 µM. Moreover, the GI50 with HCC-2998 colon is 28.9 µM; in the experiment with PC-3 prostate it was 27 µM; in the experiment with HL-60(TB) leukemia it was 18.6 µM. For the same molecule, the TGI with BT-549 breast is 40.4 µM and 32.2 µM; in the experiment with MOLT-4 leukemia, 48.9 µM and 57.7 µM; in the experiment on SK-MEL-5 melanoma, 41.5 µM and 29.5 µM; with SK-MEL-2 melanoma, 45.4 µM and 29.4 µM; in the experiment with SW-620 colon, 42.5 µM and > 100 µM; with NCI-H460 lung, 42 µM and 33.1 µM. Also, the TGI is 59.9 µM and 44.5 µM with U251 CNS; 92.4 µM and 33.6 µM in the experiment on HCC-2998 colon; > 59.3 µM and 34.1 µM in the experiment on PC-3 prostate; 41.4 µM and 67.1 µM in the experiment on HL-60(TB) leukemia.
Consider `NCCOCCOCCNc1nc(-c2ccccc2)nc(N2CCN(c3ccccn3)CC2)n1`, for which the GI50 was 11.6 µM in the experiment with BT-549 breast; 12.8 µM with MOLT-4 leukemia; 8.37 µM in the experiment with SK-MEL-5 melanoma; 13.2 µM with SW-620 colon; 16.5 µM in the experiment on NCI-H460 lung; 12.1 µM in the experiment on U251 CNS. Further, the figures for the GI50 in the experiment on HCC-2998 colon, in the experiment with PC-3 prostate and in the experiment on HL-60(TB) leukemia were 8.86 µM, 15.7 µM and 9.47 µM, respectively. Moreover, the TGI in the experiment on BT-549 breast was found to be 24 µM; in the experiment with MOLT-4 leukemia, 29.4 µM; with SK-MEL-5 melanoma, 20.9 µM; in the experiment with SW-620 colon, 28.4 µM; in the experiment with NCI-H460 lung, 34.9 µM; in the experiment on U251 CNS it was 26.3 µM. Besides, the TGI came out at 22.3 µM with HCC-2998 colon, 30.8 µM with PC-3 prostate and 26.5 µM in the experiment with HL-60(TB) leukemia.
Consider `C=C1CCC2C3(C)COC(c4ccccc4)OC3CCC2(C)C1/C=C/C1=CCOC1=O` (stereo not given), for which the GI50 with BT-549 breast was 6.29 µM; in the experiment with MOLT-4 leukemia, 2.55 µM; with SK-MEL-5 melanoma, 8.67 µM; in the experiment with SK-MEL-2 melanoma, 4.81 µM; in the experiment with SW-620 colon it was 2.96 µM; with NCI-H460 lung, 9.29 µM. Besides, the GI50 with U251 CNS was 2.87 µM; in the experiment with HCC-2998 colon, 7.75 µM; in the experiment on PC-3 prostate, 4.75 µM; in the experiment with HL-60(TB) leukemia it was 1.27 µM. In addition, the TGI was 20.8 µM in the experiment with BT-549 breast; 15.1 µM in the experiment with MOLT-4 leukemia; 21.6 µM in the experiment on SK-MEL-5 melanoma; 15.9 µM with SK-MEL-2 melanoma; 10 µM in the experiment with SW-620 colon; 35.9 µM in the experiment on NCI-H460 lung. Besides, the TGI in the experiment with U251 CNS came out at 12.3 µM; in the experiment on HCC-2998 colon it was 19.4 µM; in the experiment on PC-3 prostate, 51.3 µM; in the experiment on HL-60(TB) leukemia, 3.91 µM.
As to `CCN(CC)CCCNCc1cc(-c2ccccc2)nc2ccccc12`, the GI50 in the experiment on BT-549 breast was 3.77 µM; in the experiment with MOLT-4 leukemia it was 0.751 µM; in the experiment with SK-MEL-5 melanoma it was 5.49 µM; with SK-MEL-2 melanoma, 10.2 µM; in the experiment with SW-620 colon it was 2.75 µM; in the experiment on NCI-H460 lung, 33.2 µM. Also, the GI50 in the experiment with U251 CNS was 4.16 µM; with HCC-2998 colon it was 14.9 µM; in the experiment with PC-3 prostate it was 11.2 µM; in the experiment with HL-60(TB) leukemia it was 1.62 µM. The TGI with BT-549 breast is 15.9 µM; with MOLT-4 leukemia, more than 100 µM; in the experiment with SK-MEL-5 melanoma, 18.7 µM; with SK-MEL-2 melanoma, 22.9 µM; in the experiment with SW-620 colon, 21.9 µM; in the experiment on NCI-H460 lung, more than 100 µM. Also, the TGI in the experiment on U251 CNS was 19.4 µM; with HCC-2998 colon, 31.1 µM; in the experiment on PC-3 prostate, more than 100 µM; in the experiment with HL-60(TB) leukemia it was 14.9 µM.
Take `CCN(CC)CC(O)CNc1c2ccc([N+](=O)[O-])cc2nc2cc(OC)c(OC)cc12` (stereo not given): the GI50 is 1.81 µM in the experiment with BT-549 breast; 0.376 µM in the experiment on MOLT-4 leukemia; 0.273 µM in the experiment on SK-MEL-5 melanoma; 0.256 µM in the experiment on SK-MEL-2 melanoma; 0.289 µM with SW-620 colon; 0.185 µM in the experiment on NCI-H460 lung. Moreover, the GI50 with HCC-2998 colon is 0.24 µM; in the experiment with PC-3 prostate, 0.329 µM; in the experiment with HL-60(TB) leukemia, 2.06 µM. Further, the TGI was determined as 3.85 µM in the experiment with BT-549 breast; 12.4 µM in the experiment on MOLT-4 leukemia; 0.769 µM in the experiment on SK-MEL-5 melanoma; 0.659 µM with SK-MEL-2 melanoma; 2.37 µM in the experiment with SW-620 colon; 0.669 µM with NCI-H460 lung. Also, the values for the TGI with HCC-2998 colon, in the experiment with PC-3 prostate and with HL-60(TB) leukemia were 0.576 µM, 1.05 µM and 6.81 µM, respectively.

(Values after PubChem BioAssay (NCI).)
